This experiment addresses human PAD4 (Homo sapiens (Human), UniProt Q9UM07). Description: In Vitro PAD4 BAEE Biochemical Assay. The settings on record: human PAD4, BAEE substrate; 5 nM PAD4, 2 mM calcium chloride, 3 mM BAEE; geometric mean of multiple experiments. The essentials: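 Recombinant human PAD4 (His-SUMO tag removed, E. coli-expressed), 5 nM, preincubated with compound and 2 mM CaCl2 30 min at 25 °C in MOPS pH 7.6 with DTT; 3 mM BAEE added for 2 h at 25 °C, EDTA stop. Released ammonia detected by o-phthalaldehyde/DTT fluorescence (ex 405, em 535 nm).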
Sequence of human PAD4 (Q9UM07 2-663): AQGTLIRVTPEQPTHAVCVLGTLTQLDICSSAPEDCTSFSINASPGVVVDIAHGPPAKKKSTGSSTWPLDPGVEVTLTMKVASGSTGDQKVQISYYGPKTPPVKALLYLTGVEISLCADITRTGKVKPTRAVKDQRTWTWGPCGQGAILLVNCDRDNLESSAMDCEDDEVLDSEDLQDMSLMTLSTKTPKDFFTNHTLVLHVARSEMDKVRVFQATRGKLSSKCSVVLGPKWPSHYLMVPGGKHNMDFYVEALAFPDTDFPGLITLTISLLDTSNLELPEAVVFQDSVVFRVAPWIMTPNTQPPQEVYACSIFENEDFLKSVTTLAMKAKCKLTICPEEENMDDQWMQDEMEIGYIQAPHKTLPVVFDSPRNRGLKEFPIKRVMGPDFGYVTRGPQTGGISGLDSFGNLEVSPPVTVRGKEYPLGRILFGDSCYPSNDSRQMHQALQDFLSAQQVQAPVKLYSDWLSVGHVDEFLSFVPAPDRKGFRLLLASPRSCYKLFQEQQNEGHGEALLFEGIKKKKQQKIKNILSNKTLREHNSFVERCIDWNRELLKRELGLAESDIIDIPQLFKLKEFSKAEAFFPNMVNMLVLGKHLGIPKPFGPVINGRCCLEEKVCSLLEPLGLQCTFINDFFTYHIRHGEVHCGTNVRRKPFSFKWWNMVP
Usually IC50 stands for the concentration that gives 50% inhibition. Consider `COc1cc(C(=O)N2CCC[C@@H](N)C2)cc2nc(-c3cc4ccc([C@@H](C)NC(=O)c5ccccc5)cc4n3CC3CC3)n(C)c12` [Example 137, N-((R)-1-(2-(5-((R)-3-aminopiperidine-1-carbonyl)-7-methoxy-1-methyl-1H-benzo[d]imidazol-2-yl)-1-(cyclopropylmethyl)-1H-indol-6-yl)ethyl)benzamide], for which the IC50 came to 37.2 nM.

As to `COc1cc(C(=O)N2[C@H]3CC[C@@H]2[C@H](N)C3)cc2nc(-c3cc4ccc([C@@H](C)NC(=O)c5cnc(C)o5)cc4n3CC3CC3)n(C)c12` [Example 138, N-((R)-1-(2-(5-((1R,2R,4S)-2-amino-7-azabicyclo[2.2.1]heptane-7-carbonyl)-7-methoxy-1-methyl-1H-benzo[d]imidazol-2-yl)-1-(cyclopropylmethyl)-1H-indol-6-yl)ethyl)-2-methyloxazole-5-carboxamide], the IC50 came out at 27.6 nM.

Turning to `COc1cc(C(=O)N2[C@H]3CC[C@@H]2[C@H](N)C3)cc2nc(-c3cc4ccc([C@@H](C)NC(=O)c5cnn(C(F)F)c5)cc4n3CC3CC3)n(C)c12` [Example 139, N-((R)-1-(2-(5-((1R,2R,4S)-2-amino-7-azabicyclo[2.2.1]heptane-7-carbonyl)-7-methoxy-1-methyl-1H-benzo[d]imidazol-2-yl)-1-(cyclopropylmethyl)-1H-indol-6-yl)ethyl)-1-(difluoromethyl)-1H-pyrazole-4-carboxamide], the IC50 stood at 28.9 nM.

Consider `COc1cc(C(=O)N2[C@H]3CC[C@@H]2[C@H](N)C3)cc2nc(-c3cc4ccc([C@@H](C)NC(=O)C(C)(C)OC)cc4n3CC3CC3)n(C)c12` [Example 140, N-((R)-1-(2-(5-((1R,2R,4S)-2-amino-7-azabicyclo[2.2.1]heptane-7-carbonyl)-7-methoxy-1-methyl-1H-benzo[d]imidazol-2-yl)-1-(cyclopropylmethyl)-1H-indol-6-yl)ethyl)-2-methoxy-2-methylpropanamide], for which the IC50 amounted to 26.1 nM.

As for `COc1cc(C(=O)N2[C@H]3CC[C@@H]2[C@H](N)C3)cc2nc(-c3cc4ccc([C@@H](C)NC(=O)C5(OC)CCC5)cc4n3CC3CC3)n(C)c12` [Example 141, N-((R)-1-(2-(5-((1R,2R,4S)-2-amino-7-azabicyclo[2.2.1]heptane-7-carbonyl)-7-methoxy-1-methyl-1H-benzo[d]imidazol-2-yl)-1-(cyclopropylmethyl)-1H-indol-6-yl)ethyl)-1-methoxycyclobutane-1-carboxamide], the IC50 amounted to 63.3 nM.

As for `COc1cc(C(=O)N2[C@H]3CC[C@@H]2[C@H](N)C3)cc2nc(-c3cc4ccc([C@@H](C)NC(=O)C5(OC)CC5)cc4n3CC3CC3)n(C)c12` [Example 142, N-((R)-1-(2-(5-((1R,2R,4S)-2-amino-7-azabicyclo[2.2.1]heptane-7-carbonyl)-7-methoxy-1-methyl-1H-benzo[d]imidazol-2-yl)-1-(cyclopropylmethyl)-1H-indol-6-yl)ethyl)-1-methoxycyclopropane-1-carboxamide], the IC50 stood at 44.5 nM.

Turning to `COc1cc(C(=O)N2CCC[C@@H](N)C2)cc2nc(-c3cc4ccc([C@@H](C)NC(=O)C56CC(F)(C5)C6)c(F)c4n3CC3CC3)n(C)c12` [Example 143, N-((R)-1-(2-(5-((R)-3-aminopiperidine-1-carbonyl)-7-methoxy-1-methyl-1H-benzo[d]imidazol-2-yl)-1-(cyclopropylmethyl)-7-fluoro-1H-indol-6-yl)ethyl)-3-fluorobicyclo[1.1.1]pentane-1-carboxamide], the 50% inhibitory concentration (IC50) is 502 nM.

For `COc1cc(C(=O)N2CCC[C@@H](N)C2)cc2nc(-c3cc4cc(F)c([C@@H](C)NC(=O)C56CC(F)(C5)C6)cc4n3CC3CC3)n(C)c12` [Example 145, N-((R)-1-(2-(5-((R)-3-aminopiperidine-1-carbonyl)-7-methoxy-1-methyl-1H-benzo[d]imidazol-2-yl)-1-(cyclopropylmethyl)-5-fluoro-1H-indol-6-yl)ethyl)-3-fluorobicyclo[1.1.1]pentane-1-carboxamide], the half-maximal inhibitory concentration (IC50) is 62.8 nM.

`COc1cc(C(=O)N2[C@H]3CC[C@@H]2[C@H](N)C3)cc2nc(-c3cc4cc(F)c(CCNC(=O)C56CC(F)(C5)C6)cc4n3CC3CC3)n(C)c12` [Example 146, N-((R)-2-(2-(5-((1R,2R,4S)-2-amino-7-azabicyclo[2.2.1]heptane-7-carbonyl)-7-methoxy-1-methyl-1H-benzo[d]imidazol-2-yl)-1-(cyclopropylmethyl)-5-fluoro-1H-indol-6-yl)ethyl)-3-fluorobicyclo[1.1.1]pentane-1-carboxamide]: the IC50 came out at 45.8 nM.

As for `COc1cc(C(=O)N2[C@H]3CC[C@@H]2[C@H](N)C3)cc2nc(-c3cc4ccc([C@@H](C)NC(=O)C5(OC)CC5)cc4n3CC3CC3)n(C3CC3)c12` [Example 147, N-((R)-1-(2-(5-((1R,2R,4S)-2-amino-7-azabicyclo[2.2.1]heptane-7-carbonyl)-1-cyclopropyl-7-methoxy-1H-benzo[d]imidazol-2-yl)-1-(cyclopropylmethyl)-1H-indol-6-yl)ethyl)-1-methoxycyclopropane-1-carboxamide], the IC50 was found to be 78.9 nM.

In the case of `COc1cc(C(=O)N2[C@H]3CC[C@@H]2[C@H](N)C3)cc2nc(-c3cc4ccc([C@@H](C)NC(=O)c5c(F)cccc5F)cc4n3CC3CC3)n(C3CC3)c12` [Example 148, N-((R)-1-(2-(5-((1R,2R,4S)-2-amino-7-azabicyclo[2.2.1]heptane-7-carbonyl)-1-cyclopropyl-7-methoxy-1H-benzo[d]imidazol-2-yl)-1-(cyclopropylmethyl)-1H-indol-6-yl)ethyl)-2,6-difluorobenzamide], the IC50 came out at 123 nM.

As for `COc1cccc(F)c1C(=O)N[C@H](C)c1ccc2cc(-c3nc4cc(C(=O)N5[C@H]6CC[C@@H]5[C@H](N)C6)cc(OC)c4n3C3CC3)n(CC3CC3)c2c1` [Example 149, N-((R)-1-(2-(5-((1R,2R,4S)-2-amino-7-azabicyclo[2.2.1]heptane-7-carbonyl)-1-cyclopropyl-7-methoxy-1H-benzo[d]imidazol-2-yl)-1-(cyclopropylmethyl)-1H-indol-6-yl)ethyl)-2-fluoro-6-methoxybenzamide], the IC50 worked out at 95.4 nM.

For the compound `COc1cc(C(=O)N2CCC[C@@H](N)C2)cc2nc(-c3cc4cc(F)c([C@@H](C)NC(=O)c5cnn(C)c5)cc4n3CC3CC3)n(C)c12` [Example 150, N-((R)-1-(2-(5-((R)-3-aminopiperidine-1-carbonyl)-7-methoxy-1-methyl-1H-benzo[d]imidazol-2-yl)-1-(cyclopropylmethyl)-5-fluoro-1H-indol-6-yl)ethyl)-1-methyl-1H-pyrazole-4-carboxamide], the IC50 amounted to 116 nM.

For `COc1cc(C(=O)N2CCC[C@@H](N)C2)cc2nc(-c3cc4cc(F)c([C@@H](C)NC(=O)c5cnn(C(F)F)c5)cc4n3CC3CC3)n(C)c12` [Example 151, N-((R)-1-(2-(5-((R)-3-aminopiperidine-1-carbonyl)-7-methoxy-1-methyl-1H-benzo[d]imidazol-2-yl)-1-(cyclopropylmethyl)-5-fluoro-1H-indol-6-yl)ethyl)-1-(difluoromethyl)-1H-pyrazole-4-carboxamide], the IC50 came to 102 nM.

`COc1cc(C(=O)N2[C@H]3CC[C@@H]2[C@H](N)C3)cc2nc(-c3cc4ccc([C@@H](C)NC(=O)C5CC5(F)F)cc4n3CC3CC3)n(C3CC3)c12` (stereo partly drawn) [Example 152, N-((R)-1-(2-(5-((1R,2R,4S)-2-amino-7-azabicyclo[2.2.1]heptane-7-carbonyl)-1-cyclopropyl-7-methoxy-1H-benzo[d]imidazol-2-yl)-1-(cyclopropylmethyl)-1H-indol-6-yl)ethyl)-2,2-difluorocyclopropane-1-carboxamide]: the IC50 is 63 nM.

Regarding `COc1cc(C(=O)N2CCC[C@@H](N)C2)cc2nc(-c3cc4ccc([C@@H](C)NC(=O)C5CC5(F)F)cc4n3CC3CC3)n(C3CC3)c12` (stereo partly drawn) [Example 153, N-((R)-1-(2-(5-((R)-3-aminopiperidine-1-carbonyl)-1-cyclopropyl-7-methoxy-1H-benzo[d]imidazol-2-yl)-1-(cyclopropylmethyl)-1H-indol-6-yl)ethyl)-2,2-difluorocyclopropane-1-carboxamide], the IC50 was 102 nM.

In the case of `COc1cc(C(=O)N2C[C@H](N)CCN2C)cc2nc(-c3cc4ccc([C@@H](C)NC(=O)c5ccccc5)nc4n3CC3CC3)n(C)c12` [Example 154, N-((R)-1-(2-(5-((R)-5-amino-2-methylhexahydropyridazine-1-carbonyl)-7-methoxy-1-methyl-1H-benzo[d]imidazol-2-yl)-1-(cyclopropylmethyl)-1H-pyrrolo[2,3-b]pyridin-6-yl)ethyl)benzamide], the IC50 was determined as 89.7 nM.

With `COc1cc(C(=O)N2C[C@H](N)CCN2C)cc2nc(-c3cc4ccc([C@@H](C)NC(=O)c5ccc(F)cc5)nc4n3CC3CC3)n(C)c12` [Example 155, N-((R)-1-(2-(5-((R)-5-amino-2-methylhexahydropyridazine-1-carbonyl)-7-methoxy-1-methyl-1H-benzo[d]imidazol-2-yl)-1-(cyclopropylmethyl)-1H-pyrrolo[2,3-b]pyridin-6-yl)ethyl)-4-fluorobenzamide], the IC50 worked out at 165 nM.

As to `COc1cc(C(=O)N2C[C@H](N)CCN2C)cc2nc(-c3cc4ccc([C@@H](C)NC(=O)c5cc(F)cc(F)c5)nc4n3CC3CC3)n(C)c12` [Example 156, N-((R)-1-(2-(5-((R)-5-amino-2-methylhexahydropyridazine-1-carbonyl)-7-methoxy-1-methyl-1H-benzo[d]imidazol-2-yl)-1-(cyclopropylmethyl)-1H-pyrrolo[2,3-b]pyridin-6-yl)ethyl)-3,5-difluorobenzamide], the IC50 worked out at 166 nM.

For `COc1cc(C(=O)N2C[C@H](N)CCN2C)cc2nc(-c3cc4ccc([C@@H](C)NC(=O)c5c(F)cc(F)cc5F)nc4n3CC3CC3)n(C)c12` [Example 157, N-((R)-1-(2-(5-((R)-5-amino-2-methylhexahydropyridazine-1-carbonyl)-7-methoxy-1-methyl-1H-benzo[d]imidazol-2-yl)-1-(cyclopropylmethyl)-1H-pyrrolo[2,3-b]pyridin-6-yl)ethyl)-2,4,6-trifluorobenzamide], the IC50 turned out to be 87.4 nM.

Values taken from patent US11878965B2, “Inhibitors of peptidylarginine deiminases” (Gilead Sciences, Inc., priority 2020, dated 2024).
